# Measurements: paper PMC10760840, “Synthesis of new imine-/amine-bearing imidazo[1,2-a]pyrimidine derivatives and screening of their cytotoxic activity” (Turkish Journal of Chemistry, 2023)
# Key:
# [1] = test system: MDA–MB-231 cells; experiment: Sulforhodamine B (SRB) antiproliferative assay, MDA–MB-231; type: cell-based, human; settings: for IC50: Homo sapiens, 48 h, SRB; for IC50 / inhibition on cell proliferation: MDA–MB-231 cells; for inhibition on cell proliferation: 100 μM dose, SRB screening; for Selectivity index (SI): MDA–MB-231 relative to healthy HUVEC cells
# Protocol: (§1) MCF-7 (human breast cancer) and HUVEC (human umbilical vein endothelial) cell lines were cultured and maintained in high glucose Dulbecco’s modified Eagle medium supplemented with 10% FBS (Gibco Life Technologies, Grand Island, NY, USA), 100 U/mL penicillin, and […]. The MDA–MB-231 (human breast cancer) cell line was cultured in Roswell Park Memorial Institute 1640 (RPMI 1640) medium supplemented with 10% FBS (Gibco Life Technologies), 100 U/mL penicillin, and […]. All cells were passaged by trypsin EDTA when they reached 60%–70% confluence. The cells were cultivated at 37 °C in humidified air containing 5% CO2.
# (§2) The antiproliferative effects of compounds on breast cancer cells were determined by the sulforhodamine B (SRB) assay. In short, cells were seeded in a 96-well cell culture plate at a density of 5 × 10^4 cells/mL and the plate was incubated for 24 h in a CO2 incubator at 37 °C. MCF-7, MDA–MB-231, and HUVEC cells were cultured for 48 h with escalating doses (1, 5, 10, 25, 50, and 100 μM) of the derivatives for determination of the IC50 values. After incubation, the medium was removed from the wells and each well was incubated with a 10% trichloroacetic acid (TCA) solution for fixation at +4 °C for 1 h. The wells were washed five times with distilled water (dH2O) to get rid of the TCA and the plate was left to dry. Fresh 0.04 (m/V) SRB dye solution was added to each well, followed by incubation for 30 min at room temperature. The plate was then dried using an air dryer after being washed four times with 1% acetic acid solution. The wells were incubated in 10 mM of the tris-base solution (pH 10.5) for 10 min on a shaker and absorbance values were measured at 565 nm with a microplate reader (Tecan Infinite® 200 PRO, Switzerland). The IC50 values of the compounds were recorded using the software GraphPad Prism 5.
# [2] = test system: Bax/Bcl-2 genes; experiment: Bax/Bcl-2 mRNA expression by qPCR in MDA–MB-231 cells; type: cell-based, human
# Protocol: The mRNA levels of the Bax and Bcl-2 genes were analyzed using a qPCR protocol, following the procedure described previously. Briefly, total RNA was extracted from MDA–MB-231 cells using the Total® RNA Purification Plus Kit, following the manufacturer’s instructions (Norgen Biotek, Thorold, ON, Canada). Subsequently, synthesis of cDNA was carried out using the high-capacity cDNA reverse transcription kit (Applied Biosystems, Foster City, CA, USA). The diluted cDNA samples were combined with specific Taqman probes and Taqman PCR Master Mix, and the amplification was recorded using Applied Biosystems 7500 Real-Time PCR systems (Applied Biosystems, Thermo Fisher Scientific) for qPCR. Changes in mRNA expression levels were determined using the comparative ΔΔCT method, with β-actin serving as an endogenous control for the qPCR analysis.
# [3] = test system: HUVEC cells; experiment: Sulforhodamine B (SRB) cytotoxicity assay, HUVEC healthy cells; type: cell-based; settings: Homo sapiens, 48 h
# Protocol: as §1
# The antiproliferative effects of compounds on breast cancer cells were determined by the sulforhodamine B (SRB) assay. In short, cells were seeded in a 96-well cell culture plate at a density of 5 × 10^4 cells/mL and the plate was incubated for 24 h in a CO2 incubator at 37 °C. MCF-7, MDA–MB-231, and HUVEC cells were cultured for 48 h with escalating doses (1, 5, 10, 25, 50, and 100 μM) of the derivatives for determination of the IC50 values. […] The wells were incubated in 10 mM of the tris-base solution (pH 10.5) for 10 min on a shaker and absorbance values were measured at 565 nm with a microplate reader (Tecan Infinite® 200 PRO, Switzerland). The IC50 values of the compounds were recorded using the software GraphPad Prism 5.
# [4] = test system: MCF-7 cells; experiment: Sulforhodamine B (SRB) antiproliferative assay, MCF-7; type: cell-based, human; settings: for IC50: Homo sapiens, MCF7, 48 h, SRB; for IC50 / inhibition on cell proliferation: MCF-7 cells; for inhibition on cell proliferation: 100 μM dose, SRB screening; for Selectivity index (SI): MCF-7 relative to healthy HUVEC cells
# Protocol: as §1, §2
smiles,measurement,setting,value
"FC(F)(F)c1ccc(N=Cc2cn3cccnc3n2)cc1 [3e, N-(4-Trifluoromethylphenyl)-1-(imidazo[1,2-a]pyrimidin-2-yl)methanimine]",melting point,,224 to 226 °C
"FC(F)(F)c1ccc(NCc2cn3cccnc3n2)cc1 [4e, N-(4-Trifluoromethylphenyl)-1-(imidazo[1,2-a]pyrimidin-2-yl)methanamine]",melting point,,217 to 218 °C
"COc1ccc(N=Cc2cn3cccnc3n2)cc1 [3c, N-(4-Methoxyphenyl)-1-(imidazo[1,2-a]pyrimidin-2-yl)methanimine]",melting point,,191 to 192 °C
"CCN(CC)c1ccc(/N=C/c2cn3cccnc3n2)cc1 [3d, N-(4-(N^ı,N^ı-Diethylamino)phenyl)-1-(imidazo[1,2-a]pyrimidin-2-yl)methanimine]",IC50,[1],35.9 µM
same,inhibition on cell proliferation,[1],greatest inhibition
same,Selectivity index (SI),[1],2.0
same,Bax/Bcl-2 ratio (mRNA expression level),[2]; IC50 dose (4d: 35.1 μM),did not have significant effects
same,Bax/Bcl-2 ratio (mRNA expression level),[2]; IC50 × 2 dose (4d: 70.2 μM),did not have significant effects
same,IC50,[3],71.4 µM
same,IC50,[4],43.4 µM
same,inhibition on cell proliferation,[4],greatest inhibition
same,Selectivity index (SI),[4],1.6
same,melting point,,182 to 183 °C
"CCN(CC)c1ccc(NCc2cn3cccnc3n2)cc1 [4d, N-(4-(N^ı,N^ı-Diethylamino)phenyl)-1-(imidazo[1,2-a]pyrimidin-2-yl)methanamine]",IC50,[1],35.1 µM
same,inhibition on cell proliferation,[1],greatest inhibition
same,Selectivity index (SI),[1],1.6
same,Bax/Bcl-2 ratio (mRNA expression level),[2]; IC50 dose (4d: 35.1 μM),1.5 fold
same,Bax/Bcl-2 ratio (mRNA expression level),[2]; IC50 × 2 dose (4d: 70.2 μM),1.8 fold
same,IC50,[3],57 µM
same,IC50,[4],39 µM
same,inhibition on cell proliferation,[4],greatest inhibition
same,Selectivity index (SI),[4],1.5
same,melting point,,146 to 148 °C
"COc1ccc(NCc2cn3cccnc3n2)cc1 [4c, N-(4-Methoxyphenyl)-1-(imidazo[1,2-a]pyrimidin-2-yl)methanamine]",melting point,,175 to 176 °C
"c1ccc(NCc2cn3cccnc3n2)cc1 [4a, N-(Phenyl)-1-(imidazo[1,2-a]pyrimidin-2-yl)methanamine]",melting point,,194 to 197 °C
"c1ccc2c(NCc3cn4cccnc4n3)cccc2c1 [4b, N-(Naphthalen-1-yl)-1-(imidazo[1,2-a]pyrimidin-2-yl)methanamine]",melting point,,217 to 219 °C
